# Values of other authors as cited in patent US5196437A, “Method for treating hepatic diseases and regenerating liver tissue using FK 506 and related compounds” (Fujisawa Pharmaceutical Company, Ltd., priority 1990, dated 1993).
# What was measured:
# liver tissue = settings: literature; cited from earlier work
# liver = settings: literature (Starzl et al); cited from earlier work
Compound,regeneration of liver tissue after partial hepatectomy (liver tissue),hepatotrophic properties (liver),metabolic effect on the liver (liver)
Cn1cnc([N+](=O)[O-])c1Sc1ncnc2nc[nH]c12 [Azathioprine],depress the regeneration of liver tissue,,
glucagon,,does not have the hepatotrophic properties,powerful metabolic effect on the liver
insulin,,exhibit hepatotrophic effects similar to those of the present compounds,
